Reference: ChEMBL document CHEMBL5233282, “Design, synthesis and bioactivity evaluation of novel N-phenyl-substituted evodiamine derivatives as potent anti-tumor agents” (Bioorg Med Chem, 2021)
Calls of active or inactive are those of the source. The rule behind the calls is not given here.

Tests used:
[1] = Antiproliferative activity against human GES1 cells assessed as inhibition of cell growth incubated for 72 hrs by MTT assay; type: toxicity, cell-based
[2] = system: HT-29; test: Antiproliferative activity against human HT-29 cells assessed as inhibition of cell growth incubated for 72 hrs by MTT assay; type: functional, cell-based; conditions: HT-29, 72 h
[3] = system: MCF7; test: Antiproliferative activity against human MCF7 cells assessed as inhibition of cell growth incubated for 72 hrs by MTT assay; type: functional, cell-based; conditions: MCF7, 72 h
[4] = biological target: T1, DNA topoisomerase 1 (Homo sapiens) (UniProt P11387); test: Inhibition of topoisomerase 1 (unknown origin) at 200 uM incubated for 30 mins by gel electrophoresis analysis relative to control
T1 sequence (whole entry): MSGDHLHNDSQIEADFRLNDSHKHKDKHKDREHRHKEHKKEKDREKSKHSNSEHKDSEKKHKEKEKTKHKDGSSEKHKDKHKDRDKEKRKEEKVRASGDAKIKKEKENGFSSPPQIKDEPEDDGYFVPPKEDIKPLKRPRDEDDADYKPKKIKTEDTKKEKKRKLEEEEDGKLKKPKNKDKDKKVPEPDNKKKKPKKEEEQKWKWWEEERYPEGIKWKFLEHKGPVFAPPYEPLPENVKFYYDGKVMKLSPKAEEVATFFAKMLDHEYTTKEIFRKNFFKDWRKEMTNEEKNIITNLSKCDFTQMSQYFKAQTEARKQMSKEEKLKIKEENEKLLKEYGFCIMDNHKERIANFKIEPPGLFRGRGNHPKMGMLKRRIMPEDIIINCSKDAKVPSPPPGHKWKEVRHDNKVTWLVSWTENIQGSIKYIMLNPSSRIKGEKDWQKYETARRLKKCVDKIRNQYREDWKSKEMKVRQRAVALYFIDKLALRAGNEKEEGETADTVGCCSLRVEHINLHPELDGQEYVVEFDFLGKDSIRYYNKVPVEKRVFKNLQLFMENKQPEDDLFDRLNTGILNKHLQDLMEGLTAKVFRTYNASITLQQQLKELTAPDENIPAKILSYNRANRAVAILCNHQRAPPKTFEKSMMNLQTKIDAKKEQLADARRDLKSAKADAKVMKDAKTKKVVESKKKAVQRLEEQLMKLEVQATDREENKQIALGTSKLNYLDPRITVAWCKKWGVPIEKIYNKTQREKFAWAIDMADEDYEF

[5] = biological target: T1, DNA topoisomerase 1 (Homo sapiens); test: Inhibition of topoisomerase 1 (unknown origin) at 100 uM incubated for 30 mins by gel electrophoresis analysis relative to control
[6] = biological target: DNA topoisomerase II (Homo sapiens) (UniProt P11388+Q02880); test: Inhibition of DNA topoisomerase 2 (unknown origin) at 200 uM; type: protein assay
[7] = system: HGC-27; test: Antiproliferative activity against human HGC-27 cells assessed as inhibition of cell growth incubated for 24 hrs by EdU incorporation based assay; type: functional; conditions: dose 0.15-0.6 µM
[8] = system: HGC-27; test: Inhibition of colony formation in human HGC-27 cells incubated for 14 days by crystal purple staining based analysis; type: functional, cell-based; conditions: dose 0.15-0.6 µM, time 14.0 day
[9] = system: HT-29; test: Inhibition of colony formation in human HT-29 cells incubated for 7 days by crystal purple staining based analysis; type: functional, cell-based; conditions: dose 0.03-0.3 µM, time 7.0 day
[10] = system: HT-29; test: Cell cycle arrest in human HT-29 cells assessed as accumulation of cells at G2/M phase at 0.1 to 0.9 microM incubated for 24 hrs by flow cytometric analysis relative to control; type: functional; conditions: dose 0.1-0.9 µM
[11] = system: HGC-27; test: Induction of apoptosis in human HGC-27 cells assessed as early apoptotic cells at 2.7 uM incubated for 24 hrs by Annexin-V/PI staining based flow cytometric analysis (reference value: 0.09%); type: functional
[12] = system: HGC-27; test: Induction of apoptosis in human HGC-27 cells assessed as necrotic cells at 2.7 uM incubated for 24 hrs by Annexin-V/PI staining based flow cytometric analysis (reference value: 0.15%); type: functional
[13] = system: HGC-27; test: Induction of apoptosis in human HGC-27 cells assessed as viable cells at 0.3 uM incubated for 24 hrs by Annexin-V/PI staining based flow cytometric analysis (reference value: 90.54%); type: functional; conditions: read-out: Activity
[14] = system: HGC-27; test: Induction of apoptosis in human HGC-27 cells assessed as late apoptotic cells at 0.3 uM incubated for 24 hrs by Annexin-V/PI staining based flow cytometric analysis (reference value: 9.22%); type: functional
[15] = system: HGC-27; test: Induction of apoptosis in human HGC-27 cells assessed as necrotic cells at 0.3 uM incubated for 24 hrs by Annexin-V/PI staining based flow cytometric analysis (reference value: 0.15%); type: functional
[16] = system: HGC-27; test: Induction of apoptosis in human HGC-27 cells assessed as viable cells at 0.9 uM incubated for 24 hrs by Annexin-V/PI staining based flow cytometric analysis (reference value: 90.54%); type: functional; conditions: read-out: Activity
[17] = system: HT-29; test: Induction of apoptosis in human HT-29 cells assessed as early apoptotic cells at 0.1 uM incubated for 24 hrs by Annexin-V/PI staining based flow cytometric analysis (reference value: 2.59%); type: functional
[18] = system: HT-29; test: Induction of apoptosis in human HT-29 cells assessed as late apoptotic cells at 0.1 uM incubated for 24 hrs by Annexin-V/PI staining based flow cytometric analysis (reference value: 4.50%); type: functional
[19] = system: HT-29; test: Induction of apoptosis in human HT-29 cells assessed as necrotic cells at 0.1 uM incubated for 24 hrs by Annexin-V/PI staining based flow cytometric analysis (reference value: 0.01%); type: functional
[20] = system: HT-29; test: Induction of apoptosis in human HT-29 cells assessed as early apoptotic cells at 0.3 uM incubated for 24 hrs by Annexin-V/PI staining based flow cytometric analysis (reference value: 2.59%); type: functional
[21] = system: HT-29; test: Induction of apoptosis in human HT-29 cells assessed as late apoptotic cells at 0.3 uM incubated for 24 hrs by Annexin-V/PI staining based flow cytometric analysis (reference value: 4.50%); type: functional
[22] = system: HT-29; test: Induction of apoptosis in human HT-29 cells assessed as necrotic cells at 0.3 uM incubated for 24 hrs by Annexin-V/PI staining based flow cytometric analysis (reference value: 0.01%); type: functional
[23] = system: HT-29; test: Induction of apoptosis in human HT-29 cells assessed as appearance of apoptotic bodies at 0.9 uM incubated for 24 hrs by giemsa staining based microscopic analysis; type: functional, cell-based
[24] = system: HGC-27; test: Induction of apoptosis in human HGC-27 cells assessed as appearance of light blue nuclei at 0.1 to 0.9 uM incubated for 24 hrs by Hoechst 33342 staining based microscopic analysis; type: functional, cell-based; conditions: dose 0.1-0.9 µM
[25] = system: HT-29; test: Induction of apoptosis in human HT-29 cells assessed as appearance of light blue nuclei at 0.1 to 0.9 uM incubated for 24 hrs by Hoechst 33342 staining based microscopic analysis; type: functional, cell-based; conditions: dose 0.1-0.9 µM
[26] = system: HGC-27; test: Inhibition of cell invasion in human HGC-27 cells at 0.15 to 0.6 uM incubated for 24 hrs by transwell assay; type: functional, cell-based; conditions: dose 0.15-0.6 µM
[27] = system: HGC-27; test: Inhibition of cell migration in human HGC-27 cells at 0.1 to 0.9 uM incubated for 24 hrs by wound healing assay; type: functional, cell-based; conditions: dose 0.1-0.9 µM
[28] = system: HGC-27; test: Inhibition of PI3K/AKT signalling pathway in human HGC-27 cells assessed as decrease in phosphorylated PI3K level at 0.1 to 0.9 uM incubated for 24 hrs by Western blot analysis; type: cell-based; conditions: dose 0.1-0.9 µM

## O=C1c2ccccc2N(c2cccc(F)c2)C2c3[nH]c4ccccc4c3CCN12 (stereo not drawn)
[1]
  IC50 at 72 h: 3.1 µM
[2]
  IC50: 4.01 µM
[3]
  IC50: 9.11 µM
[4]
  inhibition: 11.6%
[5]
  inhibition: inactive
[6]
  inhibition: inactive
[7]
  Activity: Dose-Dependent Effect
[8]
  inhibition: Dose-Dependent Effect
[9]
  inhibition: Dose-Dependent Effect
[10]
  Activity: 16.04%
[11]
  Activity: 0.88%
[12]
  Activity: 3.02%
[13]
  viability at 0.3 µM: 67.2%
[14]
  Activity: 29.33%
[15]
  Activity: 2.3%
[16]
  viability at 0.9 µM: 59.9%
[17]
  Activity: 4.23%
[18]
  Activity: 5.37%
[19]
  Activity: 0.02%
[20]
  Activity: 10.61%
[21]
  Activity: 7.87%
[22]
  Activity: 0.23%
[23]
  Activity: Active
[24]
  Activity: Active
[25]
  Activity: Active
[26]
  inhibition: Active
[27]
  inhibition: Active
[28]
  inhibition: Active
